Measurements as given in ChEMBL document CHEMBL2407026, “11β-HSD1 inhibitors from Walsura cochinchinensis” (J Nat Prod, 2013).

Key:
[1] = molecular target: 11-beta-hydroxysteroid dehydrogenase 1 (Mus musculus) (UniProt P50172); experiment: Inhibition of mouse microsomal 11beta-HSD1 overexpressed in HEK293 cells using [3H]-cortisone as substrate assessed as formation of [3H]-cortisol at 10 uM by scintillation proximity assay in presence of NADPH relative to control
[2] = molecular target: T1, 11-beta-hydroxysteroid dehydrogenase 1 (Homo sapiens, UniProt P28845); experiment: Inhibition of human microsomal 11beta-HSD1 overexpressed in HEK293 cells using [3H]-cortisone as substrate assessed as formation of [3H]-cortisol at 10 uM by scintillation proximity assay in presence of NADPH relative to control
Target sequence in this assay (P28845 whole entry, looked up): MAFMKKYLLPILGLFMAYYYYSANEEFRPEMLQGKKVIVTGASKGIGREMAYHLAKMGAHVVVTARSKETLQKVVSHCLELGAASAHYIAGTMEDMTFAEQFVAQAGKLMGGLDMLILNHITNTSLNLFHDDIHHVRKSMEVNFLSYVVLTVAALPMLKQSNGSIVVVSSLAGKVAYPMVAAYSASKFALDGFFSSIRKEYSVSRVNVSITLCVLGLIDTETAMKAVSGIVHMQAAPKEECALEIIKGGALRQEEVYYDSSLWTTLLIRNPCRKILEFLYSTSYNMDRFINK

[3] = molecular target: 11-beta-hydroxysteroid dehydrogenase 1 (Mus musculus, UniProt P50172); experiment: Inhibition of mouse microsomal 11beta-HSD1 overexpressed in HEK293 cells using [3H]-cortisone as substrate assessed as formation of [3H]-cortisol by scintillation proximity assay in presence of NADPH
[4] = molecular target: T1, 11-beta-hydroxysteroid dehydrogenase 1; experiment: Inhibition of human microsomal 11beta-HSD1 overexpressed in HEK293 cells using [3H]-cortisone as substrate assessed as formation of [3H]-cortisol by scintillation proximity assay in presence of NADPH
Target sequence in this assay (P28845 whole entry): as the sequence (P28845 whole entry, looked up) above

Sequence of 11-beta-hydroxysteroid dehydrogenase 1 (Mus musculus) (P50172 whole entry, looked up): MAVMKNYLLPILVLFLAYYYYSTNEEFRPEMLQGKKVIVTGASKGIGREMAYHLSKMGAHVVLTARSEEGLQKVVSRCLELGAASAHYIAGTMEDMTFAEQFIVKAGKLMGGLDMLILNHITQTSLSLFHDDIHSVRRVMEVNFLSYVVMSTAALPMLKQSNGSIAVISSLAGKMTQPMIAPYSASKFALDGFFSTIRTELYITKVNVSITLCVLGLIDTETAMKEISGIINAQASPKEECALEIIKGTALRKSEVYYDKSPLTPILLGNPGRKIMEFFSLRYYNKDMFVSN
Sequence of 11-beta-hydroxysteroid dehydrogenase 1 (Mus musculus, UniProt P50172) (P50172 whole entry): as the sequence (P50172 whole entry, looked up) above

inhibition [1] [%]	inhibition [2] [%]	IC50 [3] [µM]	IC50 [4] [µM]	SMILES
45	45	–	–	CC(C)=CC(=O)[C@@H](O)[C@H](C)[C@@H]1CC[C@]2(C)C3=CC[C@H]4C(C)(C)[C@H](O)CC[C@]4(C)[C@H]3C[C@@H](O)[C@@]12C
> 60	> 60	0.82	3.2	CC(C)(O)[C@@H](O)[C@H]1C[C@@H]([C@@H]2CC[C@]3(C)C4=CC[C@H]5C(C)(C)[C@@H](O)CC[C@]5(C)[C@H]4CC[C@@]23C)C(=O)O1
> 60	> 60	1.15	3.74	CC(C)=CC(=O)[C@@H](O)[C@H](C)[C@@H]1CC[C@]2(C)C3=CC[C@H]4C(C)(C)[C@@H](O)CC[C@]4(C)[C@H]3C[C@@H](O)[C@@]12C
–	> 50	–	11.4	CCC(C)C(=O)O[C@@H]1C[C@H]2C(C)(C)C(=O)C=C[C@]2(C)[C@H]2[C@@H](OC(C)=O)C[C@]3(C)C(=CC(=O)[C@H]3c3ccoc3)[C@@]21C (relative stereo)
